Where a name gives a salt, the structure may show the parent alone.
Tests used:
FtsZ [1] = target: T1, FtsZ (Escherichia coli, UniProt P0A9A6); assay: FtsZ GTPase assay (BIOMOL Green, Pi release); type: biochemical, E. coli; details: for inhibition mechanism on FtsZ GTPase activity: from KM and Vmax changes at 40 µM compound; for Vmax (Pi Released/min): in presence of 40 µM compound, 6 µM FtsZ, pH 6.8, untreated 0.63 ± 0.01
T1 construct: made in house; host or cells: E. coli
Procedure: The functional effect of the berberine analogues 1c,d,f,i, and 1-2g,h on FtsZ was investigated by enzymatic assays. A recombinant form of FtsZ was produced in E. coli, purified according to [21], and used for binding assays. The GTPase activity of the FtsZ protein was assayed in the presence of the berberine-related compounds at 40 μM concentration and was monitored in comparison with the untreated protein at different GTP concentrations. The kinetic parameters were calculated according to the Michaelis–Menten equation using GraphPad Prism 8 for all the berberine-related compounds. The software returned KM (μM) and Vmax (Pi released/min) kinetic parameters that indicated the mechanism of inhibition exerted by each compound.
The determination of the inhibition constant Ki for these compounds was performed to further investigate the mode of inhibition and clarified the potency of the competitive inhibitors. The Ki values were calculated performing kinetic analyses at different concentrations of competitive inhibitors (20 μM, 40 μM, and 60 μM).
The FtsZ GTPase assay was performed using 6 μM FtsZ in reaction buffer 25 mM PIPES/NaOH, pH 6.8. The mixture containing FtsZ was incubated for 30 min at 30 °C, and different concentrations of GTP (from 0 µM to 500 µM) were added for a reaction time of 10 min, either in the absence or in the presence of 40 µM 1c, 1d, 1f, 1i, 1g, 1h, 2g, and 2h. The reaction was performed for 10 min and stopped by the addition of 100 µL BIOMOL Green reagent. The amount of Pi released during the assembly of FtsZ was monitored using BIOMOL Green phosphate reagent (Biomol, Milan, Italy) after incubation at 25 °C for 25 min by measuring the absorbance at 620 nm. The negative control (without enzyme) was subtracted from all the readings. The experiment was performed in duplicate. The data were elaborated in order to report U/mg VS substrate concentration, and kinetic parameters were fitted by nonlinear regression with GraphPad Prism 8 (GraphPad Software, San Diego, CA, USA). The inhibition constant (Ki) for all competitive inhibitors was calculated performing different kinetic analyses in the presence of 20, 40, and 60 µM of compounds and using the following equation: Ki=I/α−1 where α=KMapp/KM

E. coli = assay: Minimum inhibitory concentration determination; type: cell-based; details: Escherichia coli, 24 h, read-out: MIC E. coli
Procedure: Finally, we evaluated the in vitro antimicrobial activity of the newly synthesized berberine analogues (2g,h) on E. coli strain. The Minimal Inhibitory Concentrations (MICs) of both compounds were determined as the lowest concentration showing no visible growth after 24 h of incubation. The MIC values for 2g and 2h are reported in Table 4, together with the most interesting compounds previously reported.
In brief, the bacterial strain was incubated overnight in LB at 37 °C. The cultures were diluted approximately to 5 × 10^5 CFU/mL, and 50 μL of bacterial suspension was added to ten wells and incubated with serial dilutions of berberine analogues from an initial concentration of 500 µM. The sterility control well contained 100 μL of LB, while the growth control well contained 100 μL of microbial suspension. […] All determinations of all assays were performed in triplicate.

FtsZ [2] = target: T1, FtsZ; assay: FtsZ polymerization assay by sedimentation, SDS-PAGE densitometry; type: biochemical, E. coli; details: inhibitor concentration 60 µM, 150 µM GTP
Procedure: Inhibition of the GTPase activity of FtsZ might prevent the polymerization of the protein, which is well known to occur in the presence of GTP. We then investigated the effect of berberine analogues on the polymerization of FtsZ. The recombinant protein was incubated with 150 µM GTP in the absence and in the presence of increasing concentrations of berberine-related compounds. The FtsZ filaments were purified by centrifugation, analysed by SDS-PAGE, and the amount of polymerized protein was determined by densitometric analysis of the corresponding Coomassie-stained gel bands.
Assays for FtsZ polymerization by sedimentation were performed by incubating 6 μM FtsZ with 150 µM GTP in 25 mM PIPES/NaOH, pH 6.8 for 60 min at 25 °C. The assays were carried out in the presence and in the absence of 20 μM, 40 μM, and 60 μM of berberine analogues. The reaction mixtures were centrifuged for 60 min at 14,000 rpm, the pellets were run on 12.5% sodium dodecyl sulphate (SDS)-polyacrylamide gels, and stained by Coomassie blue. Subsequently, the images of the gels were acquired by ChemiDocTM, and the relative amount of FtsZ in the bands was determined densitometrically using the Quantity One software.
Figure 3 Polymerization assay of recombinant FtsZ (6 µM) was carried out in 25 mM PIPES/NaOH, pH 6.8, and 150 µM of GTP in the presence of berberine analogues. […]

FtsZ [3] = target: T1, FtsZ; assay: TEM microscopy of FtsZ protofilaments; type: biochemical, E. coli; details: 60 µM compound, 150 µM GTP
Procedure: The capability of berberine analogue 1i to inhibit FtsZ polymerization was also assessed by TEM microscopy, by analysing the FtsZ protofilaments of in the presence of 60 µM 1i in comparison with the untreated sample.
FtsZ polymerization reaction solutions were diluted 1:10 in polymerization buffer in the presence and in the absence of 60 µM 1c and 1i. Then, 5 µL drops of the samples for TEM analysis were placed on a carbon-coated copper TEM grid for 20 min. Excess solution was wicked away with filter paper. Negative staining with 1% phosphotungstic acid (PTA) solution at pH 7.0 was carried out by depositing a drop of PTA solution on the grid for 1 min and then blotted dry with filter paper. The grid was allowed to dry, and images were collected using a FEI TECNAI G2 S-twin apparatus operating at 120 kV (LaB6 source).
Figure 4 Transmission electron microscopic images of FtsZ in the absence (a) and in the presence of 1i inhibitors (b). The protofilaments are seen to be polymerized in an organized manner in the absence of inhibitor (a). 1i at 60 μM concentrations inhibit the FtsZ polymerization. Experimental conditions for all the FtsZ polymerization studies were […], PIPES 25 mM pH 6.8, KCl 50 mM, and 150 µM GTP.

FtsZ [4] = target: T1, FtsZ; assay: Fluorescence binding assay (quenching of compound fluorescence by FtsZ); parameters: species or system E. coli; details: dissociation constant Kd, excitation 295 nm, emission 327 nm, 20 °C
Procedure: Therefore, the intrinsic fluorescence of compound 1c was monitored at increasing concentrations of recombinant FtsZ. The sample was excited at 295 nm, and the fluorescence emission of the compound 1c was recorded.
A 1.5 mL solution containing the 1c compound was titrated by successive additions of FtsZ protein (from 0.010 to 0.120 µM). Titrations were done manually, and fluorescence spectra were measured in the range of 280–500 nm at the excitation wavelength of 295 nm. The fluorescence spectra were recorded using a Horiba Scientific Fluoromax-4 spectrofluorometer, using a quartz cell with an optical path of 1 cm, under controlled temperature conditions (Peltier control system at 20 °C). All experiments were carried out in duplicate. The change in the fluorescence intensity of the reaction set was fitted into the “one site-specific binding” equation of GraphPad Prism 8 (GraphPad Software, San Diego, CA, USA).
Figure 6 Fluorescence binding assay of compound 1c with FtsZ. (a) Emission fluorescence spectra at different concentrations of FtsZ. (b) ΔF at 325 nm vs FtsZ concentration. Experimental data were adjusted to a non-linear regression, and the Kd binding constant was estimated using GraphPad Prism 8. The experiments were performed in duplicate, and the standard deviation is reported as error bars.

T1 sequence (P0A9A6 whole entry): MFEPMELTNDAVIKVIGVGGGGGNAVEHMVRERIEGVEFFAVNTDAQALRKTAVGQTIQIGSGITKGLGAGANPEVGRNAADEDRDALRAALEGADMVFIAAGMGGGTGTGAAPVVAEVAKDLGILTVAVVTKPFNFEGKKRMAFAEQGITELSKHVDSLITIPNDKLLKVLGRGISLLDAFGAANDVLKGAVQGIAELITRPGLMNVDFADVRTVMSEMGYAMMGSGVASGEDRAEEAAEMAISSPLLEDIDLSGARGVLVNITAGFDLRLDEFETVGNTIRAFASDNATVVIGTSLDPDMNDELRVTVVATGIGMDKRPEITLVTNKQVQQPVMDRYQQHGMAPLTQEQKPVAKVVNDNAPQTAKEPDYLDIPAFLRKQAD

Row | SMILES | Ki (FtsZ [1]) | inhibition mechanism on FtsZ GTPase activity (FtsZ [1]) | Vmax (Pi Released/min) (FtsZ [1]) | MIC (E. coli) | melting point | amount of polymerized FtsZ (FtsZ [2]) | FtsZ protofilaments observed by TEM (FtsZ [3]) | Kd (FtsZ [4])
1 | c1ccc2c(CNCCc3ccc4c(c3)OCO4)cccc2c1 [1h] | 119 µM | classical competitive inhibition mechanism | 0.59 ± 0.01 Pi released/min |  |  |  |  | 
2 | CCCCCCN(CCc1ccc2c(c1)OCO2)Cc1cccc(OC)c1OC [1f] |  | non-competitive inhibition mechanism | 0.35 ± 0.01 Pi released/min |  |  |  |  | 
3 | Clc1ccc(CNCCc2ccc3c(c2)OCO3)cc1 [1g] | 41 µM | classical competitive inhibition mechanism | 0.60 ± 0.02 Pi released/min |  |  |  |  | 
4 | CCN(CCc1ccc2c(c1)OCO2)Cc1cccc(OC)c1OC [1d] | 44 µM | classical competitive inhibition mechanism | 0.58 ± 0.01 Pi released/min |  |  |  |  | 
5 | CN(CCc1ccc2c(c1)OCO2)Cc1ccc(Cl)cc1 [2g, 2-(1,3-Benzodioxol-5-yl)-N-[(4-chlorobenzyl]-N-methylethan-1-amine hydrochloride] |  | acompetitive inhibitory mechanism |  | 128 µM |  |  |  | 
6 | CN(CCc1ccc2c(c1)OCO2)Cc1cccc2ccccc12.Cl [2h, 2-(2H-1,3-Benzodioxol-5-yl)-N-methyl-N-[(naphthalen-1-yl)methyl]ethan-1-amine hydrochloride] | 51 µM | classical competitive inhibition mechanism | 0.58 ± 0.01 Pi released/min | > 512 µM | 188 to 190 °C |  |  | 
7 | O=[N+]([O-])c1ccccc1CNCCc1ccc2c(c1)OCO2 [1i] |  | non-competitive inhibition mechanism |  |  |  | almost negligible | no protofilaments could be observed | 
8 | COc1cccc(CN(C)CCc2ccc3c(c2)OCO3)c1OC [1c] | 25 µM | classical competitive inhibition mechanism | 0.54 ± 0.03 Pi released/min |  |  |  |  | 0.0266 µM
